Bridge positions count the residues as written; N and C are the ends. Square brackets hold non-standard residues; d marks the D form. Peptide text beside a SMILES is read from it. * marks the point of attachment. ξ: configuration not given here. Bip = N[C@@H](Cc1ccc(-c2ccccc2)cc1)C(=O)O; Phe(3-Me) = Cc1cccc(C[C@H](N)C(=O)O)c1; Cha = N[C@@H](CC1CCCCC1)C(=O)O; Cit = NC(=O)NCCC[C@H](N)C(=O)O; Thr(3ξ) = CC(O)[C@H](N)C(=O)O; Carboxymethyl = O=C(O)C*; Orn = NCCC[C@H](N)C(=O)O; Aun = NCCCCCCCCCCC(=O)O; Dab = NCC[C@H](N)C(=O)O; Dap = NC[C@H](N)C(=O)O; AEEA = NCCOCCOCC(=O)O

T1 sequence (Q15116 25-288): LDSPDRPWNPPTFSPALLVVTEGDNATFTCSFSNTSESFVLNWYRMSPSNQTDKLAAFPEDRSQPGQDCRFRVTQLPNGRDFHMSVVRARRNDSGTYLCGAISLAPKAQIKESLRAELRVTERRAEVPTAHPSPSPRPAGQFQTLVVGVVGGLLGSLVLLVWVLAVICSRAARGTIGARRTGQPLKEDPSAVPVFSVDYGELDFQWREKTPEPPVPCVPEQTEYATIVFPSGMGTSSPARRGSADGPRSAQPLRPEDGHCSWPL

This assay concerns the target T1, PD-1/PD-L1 interaction (PE-labeled human PD-L1-Ig binding to Jurkat cell line over-expressing human PD-1) (Homo sapiens, UniProt Q15116).
T1 construct: expressed in transfected cells; host or cells: Jurkat
As to the kind of experiment: Jurkat-PD-1 Cell Binding High-Content Screening Assay (CBA). Type of assay: cell-based. The conditions noted are these: Jurkat cell line over-expressing human PD-1; PE-labeled PD-L1-Ig 20 nM final; read-out: Jurkat hPD1-PDL1 IC50. In outline: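 Jurkat cells over-expressing human PD-1 (8×10^3 per well, DMEM/10% FCS) preincubated with compound 2 h at 37° C, then PE-labeled human PD-L1-Ig (20 nM final) added for 1 h. Cells fixed with paraformaldehyde, Hoechst-stained, and bound fluorescence quantified by high-content imaging.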
In the case of `Cc1cccc(C[C@@H]2NC(=O)[C@H](CC(=O)O)NC(=O)[C@H](Cc3ccc(OCC(=O)O)cc3)NC(=O)[C@H](CN)NC(=O)CSC[C@@H](C(=O)N[C@@H](CCN)C(=O)NCCOCCOCC(=O)NCCCCCCCCCCC(=O)O)NC(=O)[C@H](CCCN)NC(=O)[C@H](Cc3ccc(O)cc3)NC(=O)[C@H](CC3CCCCC3)NC(=O)[C@H](CCN)NC(=O)[C@@H](CC(C)C)NC(=O)[C@H](CCCN)NC(=O)[C@H](Cc3ccc(O)cc3)NC(=O)[C@H](Cc3ccc(-c4ccccc4)cc3)NC(=O)[C@H](C(C)C)NC2=O)c1` [Compound 2578] ({CH2CO}-[Dap]Y(Carboxymethyl)D[Phe(3-Me)]V[Bip]Y[Orn][dL][Dab][Cha]Y[Orn]C[Dab][AEEA][Aun]-OH; thioether N-14), the IC50 – broadly, the concentration needed to halve the response being measured – turned out to be 10.7 nM.
On to `Cc1cccc(C[C@@H]2NC(=O)[C@H](CC(=O)O)NC(=O)[C@H](Cc3ccc(OCC(=O)O)cc3)NC(=O)[C@H](CN)NC(=O)CSC[C@@H](C(=O)N[C@@H](CCN)C(=O)NCCOCCOCC(=O)NCCCCCCCCCCC(=O)O)NC(=O)[C@H](C(C)O)NC(=O)[C@H](C(C)C)NC(=O)[C@H](CC3CCCCC3)NC(=O)[C@H](CCN)NC(=O)[C@@H](CC(C)C)NC(=O)[C@H](CCCN)NC(=O)[C@H](CCCNC(N)=O)NC(=O)[C@H](Cc3ccc(-c4ccccc4)cc3)NC(=O)[C@H](Cc3ccc(O)cc3)NC2=O)c1` (stereo partly drawn) [Compound 2579] ({CH2CO}-[Dap]Y(Carboxymethyl)D[Phe(3-Me)]Y[Bip][Cit][Orn][dL][Dab][Cha]V[Thr(3ξ)]C[Dab][AEEA][Aun]-OH; thioether N-14), for which the IC50 was determined as 11.8 nM.
The value for `Cc1cccc(C[C@@H]2NC(=O)[C@H](CC(=O)O)NC(=O)[C@H](Cc3ccc(OCC(=O)O)cc3)NC(=O)[C@H](CN)NC(=O)CSC[C@@H](C(=O)N[C@@H](CCN)C(=O)NCCOCCOCC(=O)NCCCCCCCCCCC(=O)O)NC(=O)[C@H](CCCN)NC(=O)[C@H](C(C)C)NC(=O)[C@H](CC3CCCCC3)NC(=O)[C@H](CCN)NC(=O)[C@@H](CC(C)C)NC(=O)[C@H](CCCN)NC(=O)[C@H](CCCNC(N)=O)NC(=O)[C@H](Cc3ccc(-c4ccccc4)cc3)NC(=O)[C@H](Cc3ccc(O)cc3)NC2=O)c1` [Compound 2580] ({CH2CO}-[Dap]Y(Carboxymethyl)D[Phe(3-Me)]Y[Bip][Cit][Orn][dL][Dab][Cha]V[Orn]C[Dab][AEEA][Aun]-OH; thioether N-14) was 7.7 nM; that for `Cc1cccc(C[C@@H]2NC(=O)[C@H](CC(=O)O)NC(=O)[C@H](Cc3ccc(OCC(=O)O)cc3)NC(=O)[C@H](CN)NC(=O)CSC[C@@H](C(=O)N[C@@H](CCN)C(=O)NCCOCCOCC(=O)NCCCCCCCCCCC(=O)O)NC(=O)[C@H](C(C)O)NC(=O)[C@H](C(C)C)NC(=O)[C@H](CC3CCCCC3)NC(=O)[C@H](CCN)NC(=O)[C@@H](CC(C)C)NC(=O)[C@H](CCCN)NC(=O)[C@H](C(C)C)NC(=O)[C@H](Cc3ccc(-c4ccccc4)cc3)NC(=O)[C@H](Cc3ccc(O)cc3)NC2=O)c1` (stereo partly drawn) [Compound 2581] ({CH2CO}-[Dap]Y(Carboxymethyl)D[Phe(3-Me)]Y[Bip]V[Orn][dL][Dab][Cha]V[Thr(3ξ)]C[Dab][AEEA][Aun]-OH; thioether N-14) was 21.4 nM.
The value for `Cc1cccc(C[C@@H]2NC(=O)[C@H](CC(=O)O)NC(=O)[C@H](Cc3ccc(OCC(=O)O)cc3)NC(=O)[C@H](CN)NC(=O)CSC[C@@H](C(=O)N[C@@H](CCN)C(=O)NCCOCCOCC(=O)NCCCCCCCCCCC(=O)O)NC(=O)[C@H](CCCN)NC(=O)[C@H](C(C)C)NC(=O)[C@H](CC3CCCCC3)NC(=O)[C@H](CCN)NC(=O)[C@@H](CC(C)C)NC(=O)[C@H](CCCN)NC(=O)[C@H](C(C)C)NC(=O)[C@H](Cc3ccc(-c4ccccc4)cc3)NC(=O)[C@H](Cc3ccc(O)cc3)NC2=O)c1` [Compound 2582] ({CH2CO}-[Dap]Y(Carboxymethyl)D[Phe(3-Me)]Y[Bip]V[Orn][dL][Dab][Cha]V[Orn]C[Dab][AEEA][Aun]-OH; thioether N-14) was 9.5 nM; that for `Cc1cccc(C[C@@H]2NC(=O)[C@H](CC(=O)O)NC(=O)[C@H](Cc3ccc(OCC(=O)O)cc3)NC(=O)[C@H](CN)NC(=O)CSC[C@@H](C(=O)N[C@@H](CCN)C(=O)NCCOCCOCC(=O)NCCCCCCCCCCC(=O)O)NC(=O)[C@H](C(C)O)NC(=O)[C@H](Cc3ccc(O)cc3)NC(=O)[C@H](CC3CCCCC3)NC(=O)[C@H](CCN)NC(=O)[C@@H](CC(C)C)NC(=O)[C@H](CCCN)NC(=O)[C@H](CCCNC(N)=O)NC(=O)[C@H](Cc3ccc(-c4ccccc4)cc3)NC(=O)[C@H](C(C)C)NC2=O)c1` (stereo partly drawn) [Compound 2583] ({CH2CO}-[Dap]Y(Carboxymethyl)D[Phe(3-Me)]V[Bip][Cit][Orn][dL][Dab][Cha]Y[Thr(3ξ)]C[Dab][AEEA][Aun]-OH; thioether N-14) was 32.3 nM.
With `Cc1cccc(C[C@@H]2NC(=O)[C@H](CC(=O)O)NC(=O)[C@H](Cc3ccc(OCC(=O)O)cc3)NC(=O)[C@H](CN)NC(=O)CSC[C@@H](C(=O)N[C@@H](CCN)C(=O)NCCOCCOCC(=O)NCCCCCCCCCCC(=O)O)NC(=O)[C@H](CCCN)NC(=O)[C@H](Cc3ccc(O)cc3)NC(=O)[C@H](CC3CCCCC3)NC(=O)[C@H](CCN)NC(=O)[C@@H](CC(C)C)NC(=O)[C@H](CCCN)NC(=O)[C@H](CCCNC(N)=O)NC(=O)[C@H](Cc3ccc(-c4ccccc4)cc3)NC(=O)[C@H](C(C)C)NC2=O)c1` [Compound 2584] ({CH2CO}-[Dap]Y(Carboxymethyl)D[Phe(3-Me)]V[Bip][Cit][Orn][dL][Dab][Cha]Y[Orn]C[Dab][AEEA][Aun]-OH; thioether N-14), the IC50 stood at 17.9 nM.
The value for `Cc1cccc(C[C@@H]2NC(=O)[C@H](CC(=O)O)NC(=O)[C@H](Cc3ccc(OCC(=O)O)cc3)NC(=O)[C@H](CN)NC(=O)CSC[C@@H](C(=O)N[C@@H](CCN)C(=O)NCCOCCOCC(=O)NCCCCCCCCCCC(=O)O)NC(=O)[C@H](C(C)O)NC(=O)[C@H](Cc3ccc(O)cc3)NC(=O)[C@H](CC3CCCCC3)NC(=O)[C@H](CCN)NC(=O)[C@@H](CC(C)C)NC(=O)[C@H](CCCN)NC(=O)[C@H](C(C)C)NC(=O)[C@H](Cc3ccc(-c4ccccc4)cc3)NC(=O)[C@H](C(C)C)NC2=O)c1` (stereo partly drawn) [Compound 2585] ({CH2CO}-[Dap]Y(Carboxymethyl)D[Phe(3-Me)]V[Bip]V[Orn][dL][Dab][Cha]Y[Thr(3ξ)]C[Dab][AEEA][Aun]-OH; thioether N-14) was 27 nM; that for `Cc1cccc(C[C@@H]2NC(=O)[C@H](CC(=O)O)NC(=O)[C@H](Cc3ccc(OCC(=O)O)cc3)NC(=O)[C@H](CN)NC(=O)CSC[C@@H](C(=O)N[C@@H](CCN)C(=O)NCCOCCOCC(=O)NCCCCCCCCCCC(=O)O)NC(=O)[C@H](CCCN)NC(=O)[C@H](Cc3ccc(O)cc3)NC(=O)[C@H](CC3CCCCC3)NC(=O)[C@H](CCN)NC(=O)[C@@H](CC(C)C)NC(=O)[C@H](CCCN)NC(=O)[C@H](C(C)C)NC(=O)[C@H](Cc3ccc(-c4ccccc4)cc3)NC(=O)[C@H](C(C)C)NC2=O)c1` [Compound 2586] ({CH2CO}-[Dap]Y(Carboxymethyl)D[Phe(3-Me)]V[Bip]V[Orn][dL][Dab][Cha]Y[Orn]C[Dab][AEEA][Aun]-OH; thioether N-14) was 22.2 nM.

The values above are taken from patent US20260022142A1, “MACROCYCLIC IMMUNOMODULATORS” (Bristol-Myers Squibb Company, priority 2022, published 2026).
